The test system of assay [1] is lynx2KO mice. The assay is described as follows: light dark box experiment (latency to enter dark enclosed environment). The format is in vivo. Conditions: lynx2KO mice under chronic stress with administration of mec, as opposed to lynx2KO mice without mec (FIG. 2A). From the text:
FIG. 2A is a graph of the time in seconds (latency) for wild type (WT) (black bars) or lynx2 knock out (KO) (white bars) mice to enter a dark enclosed environment under conditions of saline, chronic stress, or chronic stress with administration of mecamylamine (mec) as indicated, according to embodiments of the present invention.

In assay [2] the test system is lynx2KO mice. Description: fear extinction experiment (fear associated with a noise after shock training). Conditions: lynx2KO mice with administration of mec compared to lynx2KO mice without mec (FIGS. 2B-2C). The format is in vivo. The protocol: FIG. 2B is a graph of fear observed in wild type (black circles) and lynx2KO mice (white triangles) after fear training (an electric shock depicted in yellow) associated with a noise for 24 hours followed by the same noise without the shock to measure the mouse's capability to lose the fear, according to embodiments of the present invention.
FIG. 2C is a graph of fear observed in lynx2KO mice during the fear extinction experiment of FIG. 2B with a group of lynx2KO mice receiving mecamylamine (mec), according to embodiments of the present invention.

In assay [3] the test system is amygdala (EC) neurons of lynx2KO mice. Description: long term depression (LTD) of evoked fEPSPs in brain slices after theta pulse stimulations. To be noted: brain slices from lynx2KO mice in ACSF solution with 20 mM methyllycaconitine (MLA), theta pulse stimulations (FIG. 4D). Format: cell-based. The protocol:
FIG. 4D is a graph of stimulating electrode traces from long term depression (LTD) experiments using extracellular recordings for evoked field excitatory post-synaptic potentials (fEPSPs) in […] (EC) brain slices in ACSF solution with […] methyllycaconitine (MLA) from lynx2 knockout (KO) mice before (left of zero minutes) and after (right of zero minutes) theta pulse stimulations (TSP), according to embodiments of the present invention.
The animals were anesthetized by isoflurane in an anesthetic chamber to a tolerant state (ml/kg) and euthanized through decapitation. […]
Field excitatory postsynaptic potentials (fEPSPs) were evoked by 0.05 Hz test stimulus though a bipolar stimulating electrode placed on external Capsule (EC), and a glass pipette as recording electrode was filled with ACSF and placed in BLA. […] Access resistances were continuously monitored and neurons with more than 20% change of series resistance were excluded from data analysis.
The plasticity ratio was calculated from the average EPSP amplitude of the last 10 mins of baseline recording and the last 15 mins after high frequency or low stimulus, for LTP and LTD studies, respectively. […] For all experiments, treatment effects were analyzed with one-way ANOVA, followed by the appropriate post hoc tests. […]

Structures are written as SMILES.

`CNC1(C)C2CCC(C2)C1(C)C` (stereo not drawn) [mecamylamine]: the latency to dark result in the assay with lynx2KO mice [1] was “increased latency to dark”. Also, the “ability to unlearn a fear associated with a noise (fear extinction)” value in the assay on lynx2KO mice [2] was “increased ability to unlearn a fear”.
With `CCN1C[C@]2(COC(=O)c3ccccc3N3C(=O)C[C@H](C)C3=O)CC[C@H](OC)[C@@]34[C@@H]5C[C@H]6[C@H](OC)[C@@H]5[C@](O)(C[C@@H]6OC)[C@@](O)([C@@H](OC)[C@H]23)[C@@H]14` [methyllycaconitine], the “rescue of induced long term depression (LTD)” value in assay [3] was “able to rescue induced long term depression (LTD)”.

Source of the values: patent publication US10603304B1, “Compositions and methods for treating anxiety” (priority 2015, dated 2020).
